Measured values as given in paper PMC5694347 (Clinical cancer research : an official journal of the …, 2015).
Marks after values point to notes of the source that are not given here.

Tested on: patients with relapsed and/or refractory lymphoma or MM
Assay: Safety: adverse events graded by NCI CTCAE version 3.0
Conditions: for Peripheral neuropathies NEC, All grades / Peripheral neuropathies NEC, Grade ≥3: high-level term; for Patients with serious AEs (SAEs): eight patients

NS(=O)(=O)OC[C@@H]1C[C@@H](n2ccc3c(N[C@H]4CCc5ccccc54)ncnc32)C[C@@H]1O [pevonedistat]
ALT increased, All grades (Schedule A, n=27): 12 (44) n (%)
AST increased, All grades (Schedule A, n=27): 12 (44) n (%)
Abdominal discomfort, All grades (Schedule A, n=27): 1 (4) n (%)
Abdominal discomfort, Grade ≥3 (Schedule A, n=27): 0 n (%)
Anemia, All grades (Schedule A, n=27): 7 (26) n (%)
Anemia, Grade ≥3 (Schedule A, n=27): 5 (19) n (%)
Any AE, All grades (Schedule A, n=27): 27 (100) n (%)
Any AE, Grade ≥3 (Schedule A, n=27): 16 (59) n (%)
Asthenia, All grades (Schedule A, n=27): 2 (7) n (%)
Asthenia, Grade ≥3 (Schedule A, n=27): 0 n (%)
Back pain, All grades (Schedule A, n=27): 3 (11) n (%)
Back pain, Grade ≥3 (Schedule A, n=27): 0 n (%)
Blood alkaline phosphatase increased, All grades (Schedule A, n=27): 6 (22) n (%)
Blood alkaline phosphatase increased, Grade ≥3 (Schedule A, n=27): 0 n (%)
Blood creatinine increased, All grades (Schedule A, n=27): 4 (15) n (%)
Blood creatinine increased, Grade ≥3 (Schedule A, n=27): 0 n (%)
Chills, All grades (Schedule A, n=27): 5 (19) n (%)
Chills, Grade ≥3 (Schedule A, n=27): 0 n (%)
Constipation, All grades (Schedule A, n=27): 10 (37) n (%)
Constipation, Grade ≥3 (Schedule A, n=27): 0 n (%)
Cough, All grades (Schedule A, n=27): 2 (7) n (%)
Cough, Grade ≥3 (Schedule A, n=27): 0 n (%)
Decreased appetite, All grades (Schedule A, n=27): 6 (22) n (%)
Decreased appetite, Grade ≥3 (Schedule A, n=27): 0 n (%)
Dehydration, All grades (Schedule A, n=27): 2 (7) n (%)
Dehydration, Grade ≥3 (Schedule A, n=27): 0 n (%)
Diarrhea, All grades (Schedule A, n=27): 7 (26) n (%)
Diarrhea, Grade ≥3 (Schedule A, n=27): 1 (4) n (%)
Dizziness, All grades (Schedule A, n=27): 6 (22) n (%)
Dizziness, Grade ≥3 (Schedule A, n=27): 0 n (%)
Dyspepsia, All grades (Schedule A, n=27): 0 n (%)
Dyspepsia, Grade ≥3 (Schedule A, n=27): 0 n (%)
Dyspnea exertional, All grades (Schedule A, n=27): 0 n (%)
Dyspnea exertional, Grade ≥3 (Schedule A, n=27): 0 n (%)
Dyspnea, All grades (Schedule A, n=27): 5 (19) n (%)
Dyspnea, Grade ≥3 (Schedule A, n=27): 1 (4) n (%)
Fatigue, All grades (Schedule A, n=27): 18 (67) n (%)
Fatigue, Grade ≥3 (Schedule A, n=27): 2 (7) n (%)
Headache, All grades (Schedule A, n=27): 7 (26) n (%)
Headache, Grade ≥3 (Schedule A, n=27): 0 n (%)
Hyperbilirubinemia, All grades (Schedule A, n=27): 1 (4) n (%)
Hyperbilirubinemia, Grade ≥3 (Schedule A, n=27): 0 n (%)
Hypercalcemia, All grades (Schedule A, n=27): 5 (19) n (%)
Hypercalcemia, Grade ≥3 (Schedule A, n=27): 2 (7) n (%)
Hyperkalemia, All grades (Schedule A, n=27): 4 (15) n (%)
Hyperkalemia, Grade ≥3 (Schedule A, n=27): 1 (4) n (%)
Hypomagnesemia, All grades (Schedule A, n=27): 6 (22) n (%)
Hypomagnesemia, Grade ≥3 (Schedule A, n=27): 0 n (%)
Hypophosphatemia, All grades (Schedule A, n=27): 5 (19) n (%)
Hypophosphatemia, Grade ≥3 (Schedule A, n=27): 3 (11) n (%)
Insomnia, All grades (Schedule A, n=27): 3 (11) n (%)
Insomnia, Grade ≥3 (Schedule A, n=27): 0 n (%)
Muscle spasms, All grades (Schedule A, n=27): 4 (15) n (%)
Myalgia, All grades (Schedule A, n=27): 10 (37) n (%)
Myalgia, Grade ≥3 (Schedule A, n=27): 0 n (%)
Nausea, All grades (Schedule A, n=27): 12 (44) n (%)
Nausea, Grade ≥3 (Schedule A, n=27): 0 n (%)
Neutropenia, All grades (Schedule A, n=27): 2 (7) n (%)
Neutropenia, Grade ≥3 (Schedule A, n=27): 2 (7) n (%)
Pain in extremity, All grades (Schedule A, n=27): 4 (15) n (%)
Pain in extremity, Grade ≥3 (Schedule A, n=27): 0 n (%)
Pain, All grades (Schedule A, n=27): 6 (22) n (%)
Pain, Grade ≥3 (Schedule A, n=27): 1 (4) n (%)
Paresthesia, All grades (Schedule A, n=27): 2 (7) n (%)
Paresthesia, Grade ≥3 (Schedule A, n=27): 0 n (%)
Peripheral edema, All grades (Schedule A, n=27): 3 (11) n (%)
Peripheral edema, Grade ≥3 (Schedule A, n=27): 0 n (%)
Pneumonia, All grades (Schedule A, n=27): 1 (4) n (%)
Pneumonia, Grade ≥3 (Schedule A, n=27): 1 (4) n (%)
Productive cough, All grades (Schedule A, n=27): 2 (7) n (%)
Productive cough, Grade ≥3 (Schedule A, n=27): 0 n (%)
Pyrexia, All grades (Schedule A, n=27): 11 (41) n (%)
Pyrexia, Grade ≥3 (Schedule A, n=27): 0 n (%)
Sinus tachycardia, All grades (Schedule A, n=27): 2 (7) n (%)
Sinus tachycardia, Grade ≥3 (Schedule A, n=27): 1 (4) n (%)
Thrombocytopenia, All grades (Schedule A, n=27): 3 (11) n (%)
Thrombocytopenia, Grade ≥3 (Schedule A, n=27): 1 (4) n (%)
Upper respiratory tract infection, All grades (Schedule A, n=27): 3 (11) n (%)
Upper respiratory tract infection, Grade ≥3 (Schedule A, n=27): 0 n (%)
Vision blurred, All grades (Schedule A, n=27): 5 (19) n (%)
Vision blurred, Grade ≥3 (Schedule A, n=27): 0 n (%)
Vomiting, All grades (Schedule A, n=27): 7 (26) n (%)
Vomiting, Grade ≥3 (Schedule A, n=27): 0 n (%)
Weight decreased, All grades (Schedule A, n=27): 1 (4) n (%)
Weight decreased, Grade ≥3 (Schedule A, n=27): 0 n (%)
ALT increased, Grade ≥3 (Schedule A, n=27, 1 DLT): 1 (4) ^a n (%)
AST increased, Grade ≥3 (Schedule A, n=27, 1 DLT): 2 (7) ^a n (%)
Muscle spasms, Grade ≥3 (Schedule A, n=27, 1 DLT): 1 (4) ^a n (%)
Peripheral neuropathies NEC, All grades (Schedule A, n=27): 3 (11) n (%)
Peripheral neuropathies NEC, Grade ≥3 (Schedule A, n=27): 0 n (%)
ALT increased, All grades (Schedule B, n=17): 4 (24) n (%)
ALT increased, Grade ≥3 (Schedule B, n=17): 1 (6) n (%)
AST increased, All grades (Schedule B, n=17): 2 (12) n (%)
AST increased, Grade ≥3 (Schedule B, n=17): 0 n (%)
Abdominal discomfort, All grades (Schedule B, n=17): 3 (18) n (%)
Abdominal discomfort, Grade ≥3 (Schedule B, n=17): 0 n (%)
Anemia, All grades (Schedule B, n=17): 3 (18) n (%)
Anemia, Grade ≥3 (Schedule B, n=17): 1 (6) n (%)
Any AE, All grades (Schedule B, n=17): 17 (100) n (%)
Any AE, Grade ≥3 (Schedule B, n=17): 12 (71) n (%)
Asthenia, All grades (Schedule B, n=17): 3 (18) n (%)
Asthenia, Grade ≥3 (Schedule B, n=17): 0 n (%)
Back pain, All grades (Schedule B, n=17): 4 (24) n (%)
Back pain, Grade ≥3 (Schedule B, n=17): 0 n (%)
Blood alkaline phosphatase increased, All grades (Schedule B, n=17): 1 (6) n (%)
Blood alkaline phosphatase increased, Grade ≥3 (Schedule B, n=17): 0 n (%)
Blood creatinine increased, All grades (Schedule B, n=17): 0 n (%)
Blood creatinine increased, Grade ≥3 (Schedule B, n=17): 0 n (%)
Chills, All grades (Schedule B, n=17): 6 (35) n (%)
Chills, Grade ≥3 (Schedule B, n=17): 0 n (%)
Constipation, All grades (Schedule B, n=17): 5 (29) n (%)
Constipation, Grade ≥3 (Schedule B, n=17): 0 n (%)
Cough, All grades (Schedule B, n=17): 5 (29) n (%)
Cough, Grade ≥3 (Schedule B, n=17): 0 n (%)
Decreased appetite, All grades (Schedule B, n=17): 10 (59) n (%)
Decreased appetite, Grade ≥3 (Schedule B, n=17): 0 n (%)
Dehydration, All grades (Schedule B, n=17): 3 (18) n (%)
Dehydration, Grade ≥3 (Schedule B, n=17): 1 (6) n (%)
Diarrhea, All grades (Schedule B, n=17): 8 (47) n (%)
Diarrhea, Grade ≥3 (Schedule B, n=17): 0 n (%)
Dizziness, All grades (Schedule B, n=17): 8 (47) n (%)
Dizziness, Grade ≥3 (Schedule B, n=17): 0 n (%)
Dyspepsia, All grades (Schedule B, n=17): 3 (18) n (%)
Dyspepsia, Grade ≥3 (Schedule B, n=17): 0 n (%)
Dyspnea exertional, All grades (Schedule B, n=17): 3 (18) n (%)
Dyspnea exertional, Grade ≥3 (Schedule B, n=17): 0 n (%)
Dyspnea, All grades (Schedule B, n=17): 4 (24) n (%)
Dyspnea, Grade ≥3 (Schedule B, n=17): 1 (6) n (%)
Fatigue, All grades (Schedule B, n=17): 12 (71) n (%)
Fatigue, Grade ≥3 (Schedule B, n=17): 1 (6) n (%)
Headache, All grades (Schedule B, n=17): 9 (53) n (%)
Headache, Grade ≥3 (Schedule B, n=17): 0 n (%)
Hyperbilirubinemia, All grades (Schedule B, n=17): 5 (29) n (%)
Hyperbilirubinemia, Grade ≥3 (Schedule B, n=17): 1 (6) n (%)
Hypercalcemia, All grades (Schedule B, n=17): 1 (6) n (%)
Hypercalcemia, Grade ≥3 (Schedule B, n=17): 0 n (%)
Hyperkalemia, All grades (Schedule B, n=17): 0 n (%)
Hyperkalemia, Grade ≥3 (Schedule B, n=17): 0 n (%)
Hypomagnesemia, All grades (Schedule B, n=17): 1 (6) n (%)
Hypomagnesemia, Grade ≥3 (Schedule B, n=17): 0 n (%)
Hypophosphatemia, All grades (Schedule B, n=17): 1 (6) n (%)
Hypophosphatemia, Grade ≥3 (Schedule B, n=17): 1 (6) n (%)
Insomnia, All grades (Schedule B, n=17): 4 (24) n (%)
Insomnia, Grade ≥3 (Schedule B, n=17): 0 n (%)
Muscle spasms, All grades (Schedule B, n=17): 10 (59) n (%)
Muscle spasms, Grade ≥3 (Schedule B, n=17): 1 (6) n (%)
Myalgia, All grades (Schedule B, n=17): 10 (59) n (%)
Myalgia, Grade ≥3 (Schedule B, n=17): 0 n (%)
Nausea, All grades (Schedule B, n=17): 13 (76) n (%)
Nausea, Grade ≥3 (Schedule B, n=17): 0 n (%)
Neutropenia, All grades (Schedule B, n=17): 2 (12) n (%)
Neutropenia, Grade ≥3 (Schedule B, n=17): 2 (12) n (%)
Pain in extremity, All grades (Schedule B, n=17): 5 (29) n (%)
Pain in extremity, Grade ≥3 (Schedule B, n=17): 0 n (%)
Pain, All grades (Schedule B, n=17): 5 (29) n (%)
Pain, Grade ≥3 (Schedule B, n=17): 1 (6) n (%)
Paresthesia, All grades (Schedule B, n=17): 5 (29) n (%)
Paresthesia, Grade ≥3 (Schedule B, n=17): 0 n (%)
Peripheral edema, All grades (Schedule B, n=17): 3 (18) n (%)
Peripheral edema, Grade ≥3 (Schedule B, n=17): 0 n (%)
Pneumonia, All grades (Schedule B, n=17): 3 (18) n (%)
Pneumonia, Grade ≥3 (Schedule B, n=17): 2 (12) n (%)
Productive cough, All grades (Schedule B, n=17): 3 (18) n (%)
Productive cough, Grade ≥3 (Schedule B, n=17): 0 n (%)
Pyrexia, All grades (Schedule B, n=17): 8 (47) n (%)
Pyrexia, Grade ≥3 (Schedule B, n=17): 1 (6) n (%)
Sinus tachycardia, All grades (Schedule B, n=17): 3 (18) n (%)
Sinus tachycardia, Grade ≥3 (Schedule B, n=17): 0 n (%)
Thrombocytopenia, All grades (Schedule B, n=17): 3 (18) n (%)
Upper respiratory tract infection, All grades (Schedule B, n=17): 3 (18) n (%)
Upper respiratory tract infection, Grade ≥3 (Schedule B, n=17): 1 (6) n (%)
Vision blurred, All grades (Schedule B, n=17): 0 n (%)
Vision blurred, Grade ≥3 (Schedule B, n=17): 0 n (%)
Vomiting, All grades (Schedule B, n=17): 10 (59) n (%)
Vomiting, Grade ≥3 (Schedule B, n=17): 0 n (%)
Weight decreased, All grades (Schedule B, n=17): 3 (18) n (%)
Weight decreased, Grade ≥3 (Schedule B, n=17): 0 n (%)
Thrombocytopenia, Grade ≥3 (Schedule B, n=17, 1 DLT): 1 (6) ^a n (%)
Peripheral neuropathies NEC, All grades (Schedule B, n=17): 2 (12) n (%)
Peripheral neuropathies NEC, Grade ≥3 (Schedule B, n=17): 0 n (%)
Treatment-related deaths (both schedules): no treatment-related deaths
Peripheral neuropathy rate (overall, both schedules): 11%
Grade ≥3 anemia (schedule A): 19%
Patients who discontinued due to occurrence of an AE (schedule A): 2 n
Patients with SAEs considered related to pevonedistat (schedule A): four
Patients with serious AEs (SAEs) (schedule A): 30%
Grade ≥3 neutropenia (schedule B): 12%
Grade ≥3 pneumonia (schedule B): 12%
Patients who discontinued due to occurrence of an AE (schedule B): 1 n
Patients with serious AEs (SAEs) (schedule B): 47%
